# Results as given in ChEMBL document CHEMBL3507680, “University of Dundee, Gates Library screen for HepG2 cell viability”.
# Assay: Human HepG2 cell viability assay in 384 well format
# Type: toxicity, cell-based
# Set-up: dose 125 nL, time 70.5 hour; cytotoxicity at 70.5 h: concentration not given beside the values
# Settings: HepG2 cells, read-out: Inhibition
row,Structure (SMILES),cytotoxicity at 70.5 h
1,Cc1cccc(CNc2cncc(-n3cccn3)n2)c1,-5.29%
2,CC(C)c1nccn1-c1cccc(C2CCCN(S(=O)(=O)N(C)C)C2)n1 (stereo not given),-3.37%
3,CCCNCc1cn(C)nc1-c1cccnc1,-7.26%
4,Cc1cc(C)n(C2CN(CCc3ccncc3)C2)n1,42.3%
5,Cc1cc(CN(C)C(=O)NC(C)Cc2ccco2)no1 (stereo not given),-3.4%
6,O=S(=O)(NCCc1c[nH]c2ccc(F)cc12)C1CCOCC1,-16%
7,O=C(c1ccccc1-n1cccn1)N1CCC(Nc2cccnn2)CC1,-8.8%
8,CC(NC1CCSCC1)c1ccccc1-n1cccn1 (stereo not given),-11.7%
9,COc1c(Cl)cccc1NCc1csc(C)n1,-8.65%
10,NC(=O)CCc1cccc(C2CCNCC2)n1,1.83%
11,Cc1cnn(CC2CN(Cc3nc(-c4ccoc4)no3)CCO2)c1 (stereo not given),-18.2%
12,Cc1noc(C)c1CN1CCO[C@H]2CNC[C@H]21,-6.78%
13,Cc1ncoc1C(=O)N1CC[C@@H](O)[C@@H](O)[C@H](N2CCC(F)(F)CC2)C1,-2.42%
14,COc1ccc(OC)c(CNC2CCCc3nc(N(C)C)ncc32)c1 (stereo not given),-7.31%
15,O=C(Nc1ccc(OC2CCCC2)cc1)C1CCCN1c1nccs1 (stereo not given),26.8%
16,C[C@@H]1CN(C(=O)c2ccccc2F)C[C@]12CCN(CCN(C)C)C2=O,-13.1%
17,COCc1cc(N(C)CCc2c(C)n[nH]c2C)ncn1,5.69%
18,Cc1ccc(CN2CCCC3(COCCN(Cc4c[nH]nn4)C3)C2)s1 (stereo not given),19.3%
19,O=C(c1cscn1)N1CCC(Cn2cc(-c3ccsc3)nn2)CC1,-8.02%
20,COc1ccc(S(=O)(=O)NC(=O)c2c(C)noc2C(C)C)cc1OC,-2.97%
21,Cc1cccc(COC[C@]23COC[C@H]2CN(c2ncccn2)C3)n1,-10.2%
22,Cc1cc(N2CCC(O)(CN(C)C(=O)CCN)CC2)c2cnccc2n1,-5.17%
23,Cc1ccc(CNC(=O)N2CCCC(NS(C)(=O)=O)C2)cc1 (stereo not given),2.89%

row,Structure (SMILES),cytotoxicity at 70.5 h
1,Cc1nnc(C(C)N(C)Cc2c(C)nn(-c3ccccc3)c2C)o1 (stereo not given),-1.32%
2,Cc1cc(C)c(S(=O)(=O)Nc2c(C)nc(N3CCCC3)nc2C)cc1C,2.48%
3,COCc1nc(C(=O)N2CCCC2c2cc(C)on2)cs1 (stereo not given),-9.83%
4,CC(C)n1cnc(-c2nc(C(=O)N3CCCC3)c3ccccn23)c1,-2.79%
5,CC(C)Oc1ncnc2c1CCN(C(=O)c1cccn1C)CC2,7.42%
6,c1ccc(OCCCNCCn2cccn2)cc1,-0.836%
7,Cc1cccc(C(Nc2nccc(C)n2)C2CC2)n1 (stereo not given),-4.46%
8,O=C(NC1CCOCC1)C1CC(=O)N(Cc2ccccn2)C1 (stereo not given),-2.88%
9,CN1C(=O)C2(CCN(C(=O)c3ccccc3)CC2)c2cc(F)ccc21,-7.93%
10,Cc1cnn(CC2CCCCN2C(=O)c2cccc(C(N)=O)c2)c1 (stereo not given),-1.63%
11,c1ccc(CCCC2CN(Cc3ncc[nH]3)CCO2)cc1 (stereo not given),-6.86%
12,O=S1(=O)NC[C@H]2CCN(Cc3ccccc3)CC[C@H]21,-2.52%
13,Cc1cnc(C(=O)NCC2CCOc3ccccc3C2)cn1 (stereo not given),14.4%
14,CN(CCc1ccccn1)C(=O)c1cccs1,-2.46%
15,COC(=O)c1ccc(OC)c(CN2CCN(CC(C)C)C(=O)C2C)c1 (stereo not given),26.8%
16,CCc1nc(NS(=O)(=O)c2cc(C)ccc2F)no1,-8.12%
17,COC1COC2(CCN(Cc3cccc(Cl)c3)CC2)C1 (stereo not given),-9.84%
18,O=C(C1CC=CC1)N1CCC2(CC1)OCCO2,-4.94%
19,CCc1nc(CN2CCN(c3ncnc4cc(F)ccc34)CC2)no1,24.8%
20,O=C(c1cnc(-c2ncccn2)s1)N1CCCC1Cn1cccn1 (stereo not given),-2.29%
21,Cc1nn2cccnc2c1C(=O)NCc1ccccc1OCC1CC1,-13.8%
22,c1ccc(-c2nc(CN3CCOC(Cn4cccn4)C3)cs2)cc1 (stereo not given),-2.87%
23,Cc1ccccc1N1CC2(CCN(Cc3nccn3C)C2)CC1=O (stereo not given),-13.1%

row,Structure (SMILES),cytotoxicity at 70.5 h
1,COCCN1C[C@H]2CCC[C@@H](CNc3ncccn3)[C@H]2C1,-10.7%
2,CC(C)c1nc2n(n1)CC(NCC(=O)N(C)Cc1cccs1)CC2 (stereo not given),-13.3%
3,CC(C)c1nccn1CCn1cnc2ccsc2c1=O,-8.28%
4,O=C(NC1CCN(c2ccccc2OC(F)F)C1)c1c[nH]nn1 (stereo not given),-10.2%
5,COCc1ccccc1C(=O)N1CCC(CNC(=O)OC(C)(C)C)C1 (stereo not given),-6.54%
6,Cc1cc(N2CCN(Cc3cn(C)nc3C)CC2)cc(C2CCNC2)n1 (stereo not given),-5.44%
7,COc1cc(CNC(=O)c2cc(S(C)(=O)=O)ccc2C)ccn1,-10.5%
8,Cc1cc(CNc2cc(Cl)ccc2C)no1,-11.6%
9,CCOc1ccc(C(=O)Nc2ccn(CC)n2)cc1,-1.03%
10,CC(C)N1CCC(CNCc2c[nH]nc2C(C)(C)C)C1 (stereo not given),-0.871%
11,Cc1nn(C)c(N2CCOCC2)c1CNC1CCS(=O)(=O)C1 (stereo not given),-6.08%
12,COCCC(=O)N[C@H]1CC[C@H](Nc2nccc(-c3ccncc3)n2)C1,-6.41%
13,O=C(O)C1(n2cccn2)CCN(c2nc(-c3ccccc3)no2)CC1,0.502%
14,CN(C)S(=O)(=O)N1C[C@@H]2CC[C@H](C1)N(Cc1cccc(C#N)c1)C2,-8.84%
15,CN(Cc1nc2ccccc2o1)CC1CCCN1c1cccnn1 (stereo not given),7.03%
16,COc1cc(CN[C@@H]2COC[C@H]2Cc2cc(C)no2)cc(OC)c1,-6.2%
17,O=C(NCCn1cc(Cl)cn1)C1CCN(C(=O)C2CC2)CC1,2.7%
18,N#Cc1cccc(OC2CCN(C(=O)c3cncc(O)c3)CC2)c1,-2.58%
19,COCc1ccc(C(=O)N2CCCN(Cc3cscn3)CC2)cc1,-6.01%
20,CCOc1cccc(COC(=O)c2cscn2)n1,-4.87%
21,Cc1nc(CN2CCCC(N(C)CCc3ccncc3)C2)no1 (stereo not given),17.8%
22,Cc1nccn1C1CCCN(C(=O)c2cc(Cl)c3c(c2)OCO3)C1 (stereo not given),-5.54%
23,NC(=O)N1CCC2(CCN(Cc3cccc(F)c3)CC2)CC1,-7.24%

row,Structure (SMILES),cytotoxicity at 70.5 h
1,CCOCC1CN(C(=O)Cc2ccccn2)Cc2c1cnn2C (stereo not given),-7.19%
2,Cc1cc(C)c2c(c1)C(NC(=O)CSCC(N)=O)CCO2 (stereo not given),-9.85%
3,CC(CO)NCc1csc2c1CCCC2 (stereo not given),0.572%
4,COc1ccc(OCc2nc(C(=O)N3CCCNC(=O)C3)co2)cc1,-2.16%
5,CC(C)(C)c1cnc(CN2C(=O)CC3(CCSC3)C2=O)o1 (stereo not given),-4.79%
6,CO[C@@H]1CCN(C(=O)c2cnoc2C)[C@H]1Cc1ccccc1,2.59%
7,CN(C)Cc1cnc(C2CN(C(=O)c3ccccc3Cl)CCO2)[nH]1 (stereo not given),-1.46%
8,Cc1nnc(-c2cccc(C#N)c2)n1C1CCN(C2CC2)C1=O (stereo not given),46%
9,CCc1nccn1CCC(=O)N1CC[C@H](CO)[C@H](O)C1,-10.2%
10,CCOC(=O)Cn1ccc(NC(=O)Cc2ccccc2F)n1,-18.1%
11,Cc1noc2ncc(C(=O)N3CCCC(n4ccnc4C)C3)cc12 (stereo not given),-7.39%
12,Clc1cc(CN2CCCC(Cn3cncn3)C2)c2ncccc2c1 (stereo not given),-12.2%
13,Cn1ncc(NC(=O)c2noc3c2CCCC3)c1C(=O)N1CCCCC1,-6.23%
14,CCC(C)NC(=O)Nc1cccc(OC)c1 (stereo not given),-5.26%
15,COc1ccc(F)cc1NC(=O)NCC1(CN2CCOCC2)CC1,-0.333%
16,COCCN1CCC(CNC(=O)CCc2cc(F)ccc2F)C1 (stereo not given),-4.52%
17,O=C1N(c2ccc(F)cc2)Cc2n[nH]c(=O)n21,-2.51%
18,O=C(c1ccc(-c2nc[nH]n2)cc1)N1CCOC(C(F)(F)F)C1 (stereo not given),23.3%
19,CCOc1cc(Cl)ccc1CNC(=O)N(C)CC(C)(C)O,-78.1%
20,CO[C@@H]1CC[C@H]2[C@H]1OCCN2C(=O)c1ccc(C)nc1,-3.99%
21,CCn1ncnc1CN1CCOC(Cc2cccc3ccccc23)C1 (stereo not given),-7.56%
22,CNc1nc(C(=O)N2CCC3(CCCN(C)C3=O)C2)cs1 (stereo not given),-4.39%
23,Cc1ccc2c(C)c(C(=O)NCCc3csc(N)n3)oc2c1,7.44%

row,Structure (SMILES),cytotoxicity at 70.5 h
1,O=C(NCC(F)(F)F)C1CCC(=O)N(C2CCCC2)C1 (stereo not given),-3.8%
2,O=C(Cc1ccon1)NC1CCCN(c2ccccc2F)C1=O (stereo not given),3.76%
3,CCN(C)Cc1cccc(CNC(=O)CSCc2ccncc2)c1,-6.72%
4,CCC1=N[C@@]2(CC[C@@H]3CN(C(=O)Nc4ccccc4)C[C@@H]32)C(=O)N1C,-85.8%
5,O=C(NC[C@H]1OC[C@@H](NCc2ccccn2)[C@@H]1O)c1ccc(F)cc1,2.33%
6,COc1cccc([C@H]2CN(C(C)=O)[C@@H]3CCN(Cc4ccsc4)C[C@H]23)c1,-4.18%
7,COCC(C)(C#N)NC(=O)COc1ccccc1 (stereo not given),-0.947%
8,CC(Cn1cccn1)NCc1nc(-c2ccco2)no1 (stereo not given),-16.5%
9,O=C(Cn1ccc(-c2ccccc2)n1)N1CCN(C(=O)C2CC2)CC1,-2.62%
10,O=C(c1cccc2c1OCO2)N1CCCC1Cn1cccn1 (stereo not given),-8.17%
11,CC(=O)Nc1nc(-c2ccc(F)cc2)c[nH]1,36.5%
12,Cc1nc(N2CCCC2)nc2c1CCN(C(=O)CC1CCCC1)CC2,-9.31%
13,Cc1cc(NC(=O)CN2CCN(C3CCCC3)C(=O)C2)nn1C,-4.01%
14,Cc1csc(NC(=O)c2cnc(C3CCNCC3)cn2)n1,-11.9%
15,Cc1ccc(CN2CC[C@@H](N(C)C(C)C)[C@@H]2Cc2ccccc2)o1,2.54%
16,O=C(NCCN1CCOCC1)c1ccc(-n2ccc3ccccc32)s1,-8.71%
17,Cc1noc(C)c1-c1cccc(C2CCNCC2)n1,7.5%
18,O=C(NCc1ccco1)[C@H]1C[C@@H]2CCN(c3nncs3)C[C@H]2O1,-9.42%
19,CN(C)S(=O)(=O)c1ccc(CN2CCC(c3ccccc3)C2)o1 (stereo not given),4.6%
20,Cc1ccc(-n2ncc(C(=O)N(C)C3CCN(C)CC3)c2N)cc1C,8.36%
21,COC(=O)c1ccc(OC)c(Cn2cc(Br)cn2)c1,-16.7%
22,Cc1cnn(CC2CCCN2C(=O)c2cccc3c2OCO3)c1 (stereo not given),-5.23%
23,N#Cc1cc2c(nc1SCc1cc(O)nc(O)n1)CCCC2,-7.89%
